How the values were obtained:
[1] = target: Human CB2R (Cannabinoid receptor 2) (Homo sapiens (Human), UniProt P34972); test: CB-2 in vitro cAMP assay (HTRF), inverse agonism; format: cell-based; conditions: mean where tested more than once
[2] = target: Human CB1R (Cannabinoid receptor 1) (Homo sapiens (Human), UniProt P21554); test: CB-1 in vitro cAMP assay (HTRF), inverse agonism; format: cell-based; conditions: mean where tested more than once
Chain of Human CB1R (Cannabinoid receptor 1) (P21554 whole entry): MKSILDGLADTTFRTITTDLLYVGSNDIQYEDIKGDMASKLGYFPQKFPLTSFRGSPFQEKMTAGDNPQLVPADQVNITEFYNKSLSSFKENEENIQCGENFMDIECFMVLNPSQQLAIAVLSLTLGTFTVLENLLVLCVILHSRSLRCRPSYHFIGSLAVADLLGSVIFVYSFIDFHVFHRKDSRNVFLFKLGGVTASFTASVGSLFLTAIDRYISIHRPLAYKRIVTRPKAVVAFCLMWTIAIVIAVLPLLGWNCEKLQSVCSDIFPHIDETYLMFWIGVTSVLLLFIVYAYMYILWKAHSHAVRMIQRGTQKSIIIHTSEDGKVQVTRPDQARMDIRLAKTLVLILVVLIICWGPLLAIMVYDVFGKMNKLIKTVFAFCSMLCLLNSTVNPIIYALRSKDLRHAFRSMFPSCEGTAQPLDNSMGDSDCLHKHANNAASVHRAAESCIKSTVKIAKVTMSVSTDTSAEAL

Chain of Human CB2R (Cannabinoid receptor 2) (P34972 whole entry): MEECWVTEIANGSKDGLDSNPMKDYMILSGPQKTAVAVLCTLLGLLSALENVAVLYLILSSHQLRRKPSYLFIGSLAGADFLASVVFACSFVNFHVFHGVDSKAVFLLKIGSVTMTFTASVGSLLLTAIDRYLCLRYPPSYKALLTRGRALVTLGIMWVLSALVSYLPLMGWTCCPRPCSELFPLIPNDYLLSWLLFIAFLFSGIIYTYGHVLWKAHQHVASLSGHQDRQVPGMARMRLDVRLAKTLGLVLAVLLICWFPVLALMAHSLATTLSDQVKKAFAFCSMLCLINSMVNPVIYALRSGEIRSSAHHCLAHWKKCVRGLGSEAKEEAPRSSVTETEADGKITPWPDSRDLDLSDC

SMILES	EC50 [1] [µM]	EC50 [2] [µM]
O=c1cc(NC2CCN(c3ncccn3)CC2)c2cc(C(c3ccc(Cl)cc3)c3ccc(Cl)cc3)ccc2[nH]1 [Compound 57, 6-(bis(4-chlorophenyl)methyl)-4-((1-(pyrimidin-2-yl)piperidin-4-yl)amino)quinolin-2(1H)-one]	4.1	0.011
Cc1ccc(/C=C/c2cc(=O)[nH]c3ccc(C(c4ccc(Cl)cc4)c4cccs4)cc23)cc1 (stereo not drawn) [Compound 27, 6-[(4-Chlorophenyl)(thiophen-2-yl)methyl]-4-[(E)-2-(4-methylphenyl)ethenyl]-quinolin-2(1H)-one]	> 10	0.443
COc1ccc(C(c2ccc3nccc(/C=C/c4ccccc4)c3c2)c2nccs2)cc1 (stereo not drawn) [Compound 505, (E)-2-((4-methoxyphenyl)(4-styrylquinolin-6-yl)methyl)thiazole]	> 10	0.326
O=c1cc(Nc2ccc(-c3ccccc3)cc2)c2cc(C(c3ccc(Cl)cc3)c3ccc(Cl)cc3)ccc2[nH]1 [Compound 133, 4-(Biphenyl-4-ylamino)-6-[bis(4-chlorophenyl)methyl]-quinolin-2(1H)-one]	> 10	0.073
O=c1cc(NCc2cccc(C(F)(F)F)c2)c2cc(C(c3ccc(Cl)cc3)c3ccc(Cl)cc3)ccc2[nH]1 [Compound #61, 6-(bis(4-chlorophenyl)methyl)-4-((3-(trifluoromethyl)benzyl)amino)quinolin-2(1H)-one]	1.81	0.007
O=c1cc(/C=C\c2ccc(C(F)(F)F)cc2)c2cc(C(c3ccc(Cl)cc3)c3cccs3)ccc2[nH]1 (stereo not drawn) [Compound 18, 6-[(4-Chlorophenyl)(thiophen-2-yl)methyl]-4-{(Z)-2-[4-(trifluoromethyl)phenyl]-ethenyl}quinolin-2(1H)-one]	> 10	0.875
NC(=O)CC(=O)N1CCC(Nc2cc(=O)[nH]c3ccc(C(c4ccc(Cl)cc4)c4ccc(Cl)cc4)cc23)CC1 [Compound 106, 3-(4-((6-(bis(4-chlorophenyl)methyl)-2-oxo-1,2-dihydroquinolin-4-yl)amino)piperidin-1-yl)-3-oxopropanamide]	6.5	1.55
O=C(O)c1ccc(CN2CCC(Nc3cc(=O)[nH]c4ccc(C(c5ccc(Cl)cc5)c5ccc(Cl)cc5)cc34)CC2)cc1 [Compound 127, 4-{[4-({6-[Bis(4-chlorophenyl)methyl]-2-oxo-1,2-dihydroquinolin-4-yl}amino)piperidin-1-yl]methyl}benzoic acid]	> 10	0.876

Results, then the compound that gave them:

EC50 [1] [µM]	EC50 [2] [µM]	SMILES
> 10	0.254	O=C(N1CC=C(c2cc(=O)[nH]c3ccc(C(c4ccc(Cl)cc4)c4ccc(Cl)cc4)cc23)CC1)C(F)(F)F [Compound 14, 6-(bis(4-chlorophenyl)methyl)-4-(1-(2,2,2-trifluoroacetyl)-1,2,3,6-tetrahydropyridin-4-yl)quinolin-2(1H)-one]
> 10	> 10	CCCCNc1cc(C(c2ccc(Cl)cc2)c2ccc(Cl)cc2)cc2c(NC3CCN(S(=O)(=O)C(F)(F)F)CC3)cc(=O)n(C)c12 [Compound 139, 6-[bis(4-chlorophenyl)methyl]-8-(butylamino)-1-methyl-4-[[1-(trifluoromethane)sulfonylpiperidin-4-yl]amino]-1,2-dihydroquinolin-2-one]
> 10	0.095	CC(C)(C)OC(=O)COc1ccc(Nc2cc(=O)[nH]c3ccc(C(c4ccc(Cl)cc4)c4ccc(Cl)cc4)cc23)cc1 [Compound 105, tert-butyl 2-(4-((6-(bis(4-chlorophenyl)methyl)-2-oxo-1,2-dihydroquinolin-4-yl)amino)phenoxy)acetate]
> 10	4.14	O=c1cc(/C=C/c2ccccc2)c2cc(C(c3ccc(Cl)cc3)c3cccs3)ccc2[nH]1 (stereo not drawn) [Compound 21, 6-[(4-Chlorophenyl)(thiophen-2-yl)methyl]-4-[(E)-2-phenylethenyl]quinolin-2(1H)-one]

— patent US9266835B2, “Quinoline derivatives useful as CB-1 inverse agonists” (JANSSEN PHARMACEUTICA NV, priority 2014, dated 2016)
